Results taken from US11376257B2, “Generation of muscle lineage cells and therapeutic uses thereof” (GENEA BIOCELLS USA (HOLDINGS), INC., priority 2016, dated 2022).
Entries after “also recorded” stand apart in the source; their conditions may differ. Where two headings read alike, the source gives them in different places.

How the values were obtained:
[1] = tested on: stem cell-derived myoblasts; details: for myotube morphology (visual) versus control cultures / production of myotubes with mature features (summary of FIGS. 10-18): 5 days; for production of myotubes with mature features (summary of FIGS. 10-18): different doses in Myotube Medium
Protocol: For screening, frozen satellite-like cells, prepared as described in Example 1, were thawed in a water bath at 37° C., resuspended in 3 mL of warm Myoblast Medium (Genea Biocells) and centrifuged at 400×g for 4 min. The supernatant was removed and the cell pellet was resuspended in 1 mL of medium for cell count. Cells were seeded at a density of 5,000 cells/cm^2 in collagen I-coated plastic flasks (Biocoat, BD Bioscience) and incubated at 5% CO2, 37° C. Every other day the culture medium was exchanged until cells reached a confluency of 80%, then cells were trypsinized, counted and seeded in collagen-coated 96-well plate (Biocoat) at density of 30,000 cells/cm^2 in Myoblast Medium using an automated liquid handling system (Fluent, Tecan Trading AG, Switzerland). Cells were incubated at 5% CO2, 37° C. and the medium was changed every other day until cells reached a confluence of 80%. The medium was exchanged for Myotube Medium (Genea Biocells) containing the test compounds. No further media changes were performed. In general, 3 to 6 concentrations were tested ranging from 3 μM to 1 nM; one plate per dilution was used. Media and DMSO control wells were placed randomly. No media changes were performed at this stage. After five days of myotube differentiation in the presence of compounds, cells were fixed with 10% formalin (Sigma) for 15 minutes at room temperature and washed once with phosphate-buffered saline (PBS). Next, cells were stained with an antibody specific for myosin heavy chain (Developmental Studies of Hybridoma Bank, University of Iowa, Iowa City; anti mouse A4.1519; dilution 1:1000) in PBS solution containing 5% bovine serum albumin (BSA, Sigma) and 0.3% Triton-X (Sigma) and incubated for 1 hour at room temperature. The cells were washed once with PBS and then incubated for 1 hour with a second antibody, Alexa Fluor 488-conjugated goat anti-mouse IgG (Invitrogen, 1:1000), and counterstained for nuclei with Hoechst 33342 (Molecular probes 1:5000) in a PBS solution containing 5% BSA and 0.3% Triton-X. Cells were washed with PBS prior microscopic analysis. Cells were imaged using an IN Cell Analyzer 6000 (GE-Healthcare) high content analysis system. Developer Toolbox v1.9.3 was utilized for image analysis to determine the number of nuclei, and the number of nuclei within MHC-positive myotubes. To evaluate the effect of compounds in either decrease or increase these measures untreated controls were set as the baseline.
Myoblasts were prepared or frozen myoblasts were thawed as described in Example 4. Once cultures reached confluency the medium was changed to Myotube Medium supplemented with 0.2, 0.5 or 1 μM CHIR-124 (Chk1 inhibitor). The cultures were left in an incubator at 37° C. and 5% CO2 for 5 days. […] Cells were fixed with 10% formalin (Sigma) for 15 minutes at room temperature and washed once with phosphate-buffered saline (PBS). Next, cells were stained for with antibodies specific for myosin heavy chain (Developmental Studies of Hybridoma Bank, University of Iowa, Iowa City; anti mouse A4.1519; dilution 1:1000) and MyoG (Santa Cruz, anti-rabbit; dilution 1:500) in PBS solution containing 5% bovine serum albumin (BSA, Sigma) and 0.3% Triton-X (Sigma) and incubated for 1 hour at room temperature. The cells were washed once with PBS and then incubated for 1 hour with a second antibody, Alexa Fluor 488-conjugated goat anti-mouse IgG and Alexa Fluor 647-conjugated anti-rabbit (both Invitrogen, 1:1000), and counterstained for nuclei with Hoechst 33342 (Molecular probes 1:5000) in a PBS solution containing 5% BSA and 0.3% Triton-X. Cells were washed with PBS prior to microscopic analysis. Cells were imaged using an IN Cell Analyzer 6000 (GE-Healthcare) high content analysis system.

[2] = tested on: myoblasts from non-affected and genetic disease-affected hESC cell lines; assay: Myotube formation in disease-affected and non-affected hESC-derived myoblasts with or without CHIR-124; format: cell-based, human; details: 0.5 μM CHIR-124, three days in Myotube Medium, all cell lines (unaffected, Huntington's, DM1, DM2, SMA, FSH, DMD)
Protocol: Myoblasts prepared via the method of Example 4 from two non-affected hESC cell lines (Genea002 and Genes019) and six verified genetic disease-affected cell lines (Genea020, Genea066, Gen103, Gen158, Gen049 and Gen159, described in Table 6 below) were thawed in Genea Biocells Myoblast Medium in 96-well microtiter plates at 3.0×10^4 cells/cm2 and incubated at 10% CO2, 37° C. Genea020 was derived from an embryo affected with Huntington's disease (48CAG repeat expansion in the Huntingtin gene). Genea066 was derived from an embryo affected with Myotonic Dystrophy type II. Genea103 was derived from an embryo affected with Spinal Muscular Atrophy. Genea158 was derived from an embryo affected with Myotonic Dystrophy type I. Genea049 was derived from an embryo affected with FSH Muscular Dystrophy. Genea159 was derived from an embryo affected with Duchenne muscular dystrophy. All hESC cell lines were derived according to approved ethical protocols from donated embryos. Once cells (myoblasts) were confluent (approximately on day 3) media was changed for Genea Biocells Myotube Medium, either alone or with 0.5 μM CHIR-124 (CHIR). […] Images were analyzed with IN Cell Developer Toolbox software (GE Healthcare). […] The ratio between area of MHC and nuclei (um2) was calculated by measuring the area per field divided by the number of nuclei within that field.

[3] = tested on: Duchenne Muscular Dystrophy (DMD); assay: Treatment of a Duchenne Muscular Dystrophy patient with a checkpoint inhibitor; format: in vivo, human; details: child with DMD
Protocol: A child diagnosed with Duchenne Muscular Dystrophy (DMD) is seen in a clinic for weakness in their calves and thighs.
A child diagnosed with Duchenne Muscular Dystrophy (DMD) is seen in a clinic for weakness in their calves and thighs. To treat the muscle weakness, the patient is administered 100 mg once daily of CHIR-124 or 50-75 mg twice daily of CHIR-124 for two months. At the initial appointment, skin fibroblasts are obtained from the patient. The fibroblasts are subsequently used to produce induced pluripotent stem cells (iPSCs), which are then genetically modified to remove a mutation associated with DMD. The iPSCs are then differentiated into satellite cells in vitro; and the satellite cells, in turn, are differentiated into myoblasts in vitro. The differentiated myoblasts are then administered in […] doses to the patient's thighs and calves once a week during the two month period.

[4] = tested on: myosin heavy chains (MHC) in Genea015 myoblast-derived myotubes; assay: Western blot analysis of myosin heavy chain types in myotubes; format: cell-based, human
Protocol: Genea015 (a disease-unaffected hESC cell line) myoblasts prepared by the method of Example 4 were thawed and seeded at 30,000 cells/cm^2 in Genea Biocells Myoblast Medium and incubated at 37° C., 5% CO2 until confluent (approximately 2 days). Then media was changed for Genea Biocells Myotube Medium either alone or with […] CHIR-124. Cell lysates for protein analysis were collected 5 days after treatment with CHIR-124 and quantified by BCA assay (ThermoFisher). Western blotting (Wes, Protein Simple) was performed to analyze the expression of myosin heavy chains (MHC) that are expressed during development and maturation of myotubes (total MHC, or total myosin heavy chain; eMHC, or embryonic myosin heavy chain; fMHC, or foetal myosin heavy chain; pMHC, or perinatal myosin heavy chain; and fast MHC, or fast myosin heavy chain, the most mature MHC found in myotubes). MHC expression was normalized to Vinculin for quantification.

[5] = 0.5 μM CHIR-124, 5 days, Genea015

Molecule: CN1[C@@H]2CC[C@H]1C[C@@H](OC(=O)C(CO)c1ccccc1)C2 (some centres unmarked) [atropine]
- myotube morphology (visual) versus control cultures ([1]; 0.2, 0.5 or 1 μM atropine): formed longer and thicker myotubes than control cultures
- number of myotubes observed ([1]; cultures incubated with atropine): overall fewer myotubes were observed
- production of myotubes with mature features (summary of FIGS. 10-18) [1]: produce myotubes with mature features

Molecule: COc1ccncc1C(=O)NC(=O)Nc1ccc(-c2ccccc2)c(C(F)(F)F)c1 [TC-G 1006]
- myotube morphology (visual) versus control cultures ([1]; 0.1, 0.3 or 1 M): formed longer and thicker myotubes than control cultures
- production of myotubes with mature features (summary of FIGS. 10-18) [1]: produce myotubes with mature features

Molecule: CC(C)c1noc(N2CCC(COc3ccc(-c4ccc(S(C)(=O)=O)cc4)nc3)CC2)n1 [GSK1292263]
- myotube morphology (visual) versus control cultures ([1]; 0.1, 0.3 or 1 M): formed longer and thicker myotubes than control cultures
- production of myotubes with mature features (summary of FIGS. 10-18) [1]: produce myotubes with mature features

Molecule: Cn1cnc2c(F)c(Nc3ccc(Br)cc3F)c(C(=O)NOCCO)cc21 [MEK162, binimetinib]
- myotube morphology (visual) versus control cultures ([1]; 0.1, 0.3 or 1 μM): formed more and longer and thicker myotubes than control cultures
- production of myotubes with mature features (summary of FIGS. 10-18) [1]: produce myotubes with mature features

Molecule: CC[C@@H]1C(=O)OC[C@@H]1Cc1cncn1C [pilocarpine]
- myotube morphology (visual) versus control cultures ([1]; 0.1, 03 or 1 μM pilocarpine): formed longer and thicker myotubes than control cultures
- production of myotubes with mature features (summary of FIGS. 10-18) [1]: produce myotubes with mature features

Molecule: O=c1[nH]c2ccc(Cl)cc2c(NC2CN3CCC2CC3)c1-c1nc2ccccc2[nH]1 (centres unmarked) [CHIR-124]
- myotube formation as MHC staining area normalized to cell number (nuclei) [2]: improved myotube formation; also recorded: improvements in differentiation
- myotube formation as MHC staining area normalized to cell number (nuclei) ([2]; listed as CHIR124): higher
- symptoms of muscle weakness ([3]; 100 mg once daily or 50-75 mg twice daily for two months): symptoms of muscle weakness improve
- muscle tone ([3]; CHIR-124 for two months combined with genetically modified iPSC-derived myoblasts once a week): improved muscle tone
- myotube morphology (visual) ([1]; 0.2 μM, 0.5 μM, or 1 μM CHIR-124, 5 days): formed thick, large myotubes
- number of myotubes observed ([1]; 1 μM CHIR-124, 5 days): overall fewer myotubes were observed
- larger average myotube diameter compared to myotubes formed in the absence of CHIR-124 ([1]; 0.2 or 0.5 μM CHIR-124, 5 days): > 80%
- average number of nuclei per myotube ([1]; 0.2 or 0.5 μM CHIR-124, 5 days, 2 without CHIR-124): about 4
- mean area of myotubes (FIG. 10D, lower panel) ([1]; CHIR-124, 5 days): Increases
- myotube area (FIG. 10C, lower panel) ([1]; CHIR-124, 5 days): Increases
- number of cells with larger myotube area (FIG. 10D, upper panel) ([1]; CHIR-124, 5 days): Increases
- number of cells with more than one nucleus (FIG. 10B, lower panel) ([1]; CHIR-124, 5 days): Increases
- production of myotubes with mature features (summary of FIGS. 10-18) [1]: produce myotubes with mature features
- nuclei contained in many myotubes ([1]; exposed to CHIR-124, untreated controls few cells exceeding 10-12 nuclei): more than 30
- expression of fast MHC (fast myosin heavy chain) [4, 5]: increases in expression
- expression of total MHC normalized to Vinculin [4, 5]: increases expression
- expression of pMHC (perinatal myosin heavy chain) ([4]; 0.5 M CHIR-124, 5 days, Genea015): increases in expression
- expression of the most mature forms of MHC (FIG. 20) ([4]; in the presence of CHIR-124): increased expression

Molecule: talazoparib
- myotube morphology (visual) versus control cultures ([1]; 0.1, 0.3 or 1 μM Talazoparib): formed more and longer myotubes than control cultures
- production of myotubes with mature features (summary of FIGS. 10-18) [1]: produce myotubes with mature features

Molecule: CO[C@H]1C[C@@H]2CC[C@@H](C)[C@@](O)(O2)C(=O)C(=O)N2CCCC[C@H]2C(=O)O[C@H]([C@H](C)C[C@@H]2CC[C@@H](O)[C@H](OC)C2)CC(=O)[C@H](C)/C=C(\C)[C@@H](O)[C@@H](OC)C(=O)[C@H](C)C[C@H](C)/C=C/C=C/C=C/1C [rapamycin]
- myotube morphology (visual) versus control cultures ([1]; 0.1, 0.3 or 1 μM): formed more and longer and thicker myotubes than control cultures
- production of myotubes with mature features (summary of FIGS. 10-18) [1]: produce myotubes with mature features

Molecule: CNC(=O)c1cc(Oc2ccc(NC(=O)Nc3ccc(Cl)c(C(F)(F)F)c3)cc2)ccn1 [sorafenib]
- myotube morphology (visual) versus control cultures ([1]; 0.1, 0.3 or 1 μM): formed more and longer and thicker myotubes than control cultures
- production of myotubes with mature features (summary of FIGS. 10-18) [1]: produce myotubes with mature features
